Laboratory results reported in patent publication US7462630B2, “Diarylalkene derivatives and novel diarylalkane derivatives” (Ajinomoto Co., Inc., priority 2001, dated 2008).

Columns and labels:
[1] = target: T1, L-type calcium channel (Rattus norvegicus, UniProt P22002); test: Antagonistic activity on L-type calcium channel (relaxation response against KCl-induced contraction of isolated rat thoracic aorta); conditions: read-out: Antagonistic action on L-type calcium channels pIC50 (converted)
T1 construct: relaxation response against the KCl-induced contraction of isolated rat thoracic aorta was employed; from tissue; host or cells: endothelium-denuded thoracic aorta rings of Wistar rat
Description: The antagonistic activity of the new diarylalkene derivatives and diarylalkane derivatives of the present invention to inhibit L-type calcium channel was determined by the following method in which the relaxation response against the KCl-induced contraction of isolated rat thoracic aorta was employed.
The slips of thoracic aorta isolated from a Wistar rat were used. The aorta was cut to obtain ring-shaped samples having a width of about 3 mm. The endothelial cells of the samples were mechanically removed. The samples were suspended in a strain gage in Tyrode's solution (158.3 mM of NaCl, 4.0 mM of KCl, 1.05 mM of MgCl2, 0.42 mM of NaH2PO4, 10 mM of NaHCO3, 2 mM of CaCl2 and 5 mM of glucose) in which a gaseous mixture of O2 (95%) and CO2 (5%) was introduced. A static tension of 2 g was applied thereto. The tension of the blood vessel was amplified with a transducer and a tension amplifier (EF-601G; Nihon Koden Corporation) and recorded with a multi-pen recorder (Rikadenki Kogyo Co., Ltd.). The experiments were conducted at 37° C.
After the tension had been stabilized, the nutrient solution in the sample tank was replaced with High K^+ Tyrode's solution (112.3 mM of NaCl, 50 mM of KCl, 1.05 mM of MgCl2, 0.42 mM of NaH2PO4, 10 mM of NaHCO3, 2 mM of CaCl2 and 5 mM of glucose) to conduct the contraction reaction. Thirty minutes after, the solution in the sample tank was replaced with the normal Tyrode's solution. The solution in the sample tank was again replaced with the High K^+ Tyrode's solution and the contraction reaction was observed. After attaining the maximum contraction reaction, the test compound was cumulatively added at intervals of 90 minutes to attain concentrations of 10^−9, 10^−8, 10^−7 and 10^−6 M. The inhibitory rate of the test compound against the maximum contraction response was employed as the index of the antagonistic activity on L-type calcium channels.
The value of pIC50 indicates the antagonistic activity of the test compound, i. e. the negative logarithm of the concentration of the test compound necessitated for the 50% inhibition.

[2] = target: T2, N-type calcium channel (Homo sapiens, UniProt Q00975); test: Antagonistic activity on N-type calcium channel (fluorescence dye method, KCl-stimulated intracellular calcium change in IMR-32 cells with 1 μM Nifedipine); assay type: cell-based; conditions: 10 μM test compound, 60 mM KCl stimulation, read-out: Antagonistic activity on N-type calcium channels at 10 μM inhibition rate (%)
T2 construct: host or cells: IMR-32 human neuroblastoma cells, differentiated with dibutyl cAMP and 5-bromodeoxyuridine
T2 sequence (Q00975 whole entry): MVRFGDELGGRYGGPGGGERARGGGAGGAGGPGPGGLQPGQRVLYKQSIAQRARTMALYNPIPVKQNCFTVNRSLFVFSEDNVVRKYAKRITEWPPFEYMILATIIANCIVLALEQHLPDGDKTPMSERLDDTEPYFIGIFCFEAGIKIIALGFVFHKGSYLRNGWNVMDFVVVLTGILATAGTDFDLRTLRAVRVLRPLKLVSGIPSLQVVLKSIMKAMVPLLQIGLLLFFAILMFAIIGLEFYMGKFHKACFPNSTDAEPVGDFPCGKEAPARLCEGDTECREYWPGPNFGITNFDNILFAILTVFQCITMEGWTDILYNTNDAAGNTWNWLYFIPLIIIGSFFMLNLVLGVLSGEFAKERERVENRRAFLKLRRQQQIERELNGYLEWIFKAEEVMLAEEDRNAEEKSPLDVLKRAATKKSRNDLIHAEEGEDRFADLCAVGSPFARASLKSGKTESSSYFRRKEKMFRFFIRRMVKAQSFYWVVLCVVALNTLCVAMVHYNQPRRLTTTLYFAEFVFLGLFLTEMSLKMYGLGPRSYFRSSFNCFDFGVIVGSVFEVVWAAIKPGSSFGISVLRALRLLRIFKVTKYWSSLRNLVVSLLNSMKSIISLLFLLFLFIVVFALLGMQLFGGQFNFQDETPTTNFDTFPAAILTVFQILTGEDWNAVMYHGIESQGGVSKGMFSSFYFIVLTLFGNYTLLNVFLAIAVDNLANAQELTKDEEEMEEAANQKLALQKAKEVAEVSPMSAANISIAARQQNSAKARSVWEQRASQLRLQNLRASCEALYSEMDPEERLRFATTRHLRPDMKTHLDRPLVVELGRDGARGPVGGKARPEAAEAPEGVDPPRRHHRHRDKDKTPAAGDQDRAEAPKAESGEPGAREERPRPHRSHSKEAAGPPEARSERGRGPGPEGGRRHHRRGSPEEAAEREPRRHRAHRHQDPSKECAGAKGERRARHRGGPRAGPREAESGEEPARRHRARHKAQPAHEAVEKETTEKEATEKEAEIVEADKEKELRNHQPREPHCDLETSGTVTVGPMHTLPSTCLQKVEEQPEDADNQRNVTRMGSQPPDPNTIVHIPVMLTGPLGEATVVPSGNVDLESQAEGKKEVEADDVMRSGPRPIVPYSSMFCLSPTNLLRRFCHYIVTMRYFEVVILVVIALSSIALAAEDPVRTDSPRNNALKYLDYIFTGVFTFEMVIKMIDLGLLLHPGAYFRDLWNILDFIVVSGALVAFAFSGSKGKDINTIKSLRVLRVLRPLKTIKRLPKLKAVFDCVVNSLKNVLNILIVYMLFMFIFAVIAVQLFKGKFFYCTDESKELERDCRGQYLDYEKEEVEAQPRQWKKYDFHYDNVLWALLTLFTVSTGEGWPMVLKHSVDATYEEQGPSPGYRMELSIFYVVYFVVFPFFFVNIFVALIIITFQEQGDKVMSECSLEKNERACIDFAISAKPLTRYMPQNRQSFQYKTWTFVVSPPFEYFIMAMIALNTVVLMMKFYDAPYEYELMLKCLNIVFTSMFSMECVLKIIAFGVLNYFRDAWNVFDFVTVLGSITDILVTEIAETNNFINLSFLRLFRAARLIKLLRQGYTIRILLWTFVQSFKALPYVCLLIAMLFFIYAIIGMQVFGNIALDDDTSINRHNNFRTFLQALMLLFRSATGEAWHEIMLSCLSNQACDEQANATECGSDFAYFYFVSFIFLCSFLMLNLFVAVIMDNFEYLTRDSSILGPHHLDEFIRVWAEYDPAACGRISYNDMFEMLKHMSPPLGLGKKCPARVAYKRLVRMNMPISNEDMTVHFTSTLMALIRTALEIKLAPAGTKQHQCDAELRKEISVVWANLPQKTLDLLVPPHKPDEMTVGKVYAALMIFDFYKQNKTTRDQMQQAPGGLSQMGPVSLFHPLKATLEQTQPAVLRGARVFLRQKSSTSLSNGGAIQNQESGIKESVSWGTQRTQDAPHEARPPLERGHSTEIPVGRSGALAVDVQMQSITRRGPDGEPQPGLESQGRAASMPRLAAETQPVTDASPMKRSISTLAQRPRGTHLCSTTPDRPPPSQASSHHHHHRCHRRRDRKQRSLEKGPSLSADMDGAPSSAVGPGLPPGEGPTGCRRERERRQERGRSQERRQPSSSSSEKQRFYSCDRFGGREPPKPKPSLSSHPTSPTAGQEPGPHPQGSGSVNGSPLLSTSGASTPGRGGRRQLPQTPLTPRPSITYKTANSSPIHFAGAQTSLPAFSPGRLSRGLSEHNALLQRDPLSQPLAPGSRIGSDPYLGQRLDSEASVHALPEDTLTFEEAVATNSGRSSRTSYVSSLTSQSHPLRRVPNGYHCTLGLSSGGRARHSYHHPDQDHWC
T2 sequence (P54284 whole entry partner): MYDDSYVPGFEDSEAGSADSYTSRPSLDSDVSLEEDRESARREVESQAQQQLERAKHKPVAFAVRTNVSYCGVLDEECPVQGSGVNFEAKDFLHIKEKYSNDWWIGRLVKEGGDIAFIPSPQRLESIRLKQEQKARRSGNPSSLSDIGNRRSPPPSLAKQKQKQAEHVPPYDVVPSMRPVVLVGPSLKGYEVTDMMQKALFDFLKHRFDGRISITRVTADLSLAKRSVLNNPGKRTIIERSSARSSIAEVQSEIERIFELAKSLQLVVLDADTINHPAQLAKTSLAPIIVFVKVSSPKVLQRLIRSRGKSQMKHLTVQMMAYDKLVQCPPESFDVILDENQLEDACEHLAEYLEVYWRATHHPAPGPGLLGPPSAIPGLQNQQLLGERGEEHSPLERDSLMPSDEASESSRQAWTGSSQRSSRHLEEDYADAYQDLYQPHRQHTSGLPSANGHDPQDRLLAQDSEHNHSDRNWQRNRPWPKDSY
T2 sequence (P54289 25-956 partner limits assumed): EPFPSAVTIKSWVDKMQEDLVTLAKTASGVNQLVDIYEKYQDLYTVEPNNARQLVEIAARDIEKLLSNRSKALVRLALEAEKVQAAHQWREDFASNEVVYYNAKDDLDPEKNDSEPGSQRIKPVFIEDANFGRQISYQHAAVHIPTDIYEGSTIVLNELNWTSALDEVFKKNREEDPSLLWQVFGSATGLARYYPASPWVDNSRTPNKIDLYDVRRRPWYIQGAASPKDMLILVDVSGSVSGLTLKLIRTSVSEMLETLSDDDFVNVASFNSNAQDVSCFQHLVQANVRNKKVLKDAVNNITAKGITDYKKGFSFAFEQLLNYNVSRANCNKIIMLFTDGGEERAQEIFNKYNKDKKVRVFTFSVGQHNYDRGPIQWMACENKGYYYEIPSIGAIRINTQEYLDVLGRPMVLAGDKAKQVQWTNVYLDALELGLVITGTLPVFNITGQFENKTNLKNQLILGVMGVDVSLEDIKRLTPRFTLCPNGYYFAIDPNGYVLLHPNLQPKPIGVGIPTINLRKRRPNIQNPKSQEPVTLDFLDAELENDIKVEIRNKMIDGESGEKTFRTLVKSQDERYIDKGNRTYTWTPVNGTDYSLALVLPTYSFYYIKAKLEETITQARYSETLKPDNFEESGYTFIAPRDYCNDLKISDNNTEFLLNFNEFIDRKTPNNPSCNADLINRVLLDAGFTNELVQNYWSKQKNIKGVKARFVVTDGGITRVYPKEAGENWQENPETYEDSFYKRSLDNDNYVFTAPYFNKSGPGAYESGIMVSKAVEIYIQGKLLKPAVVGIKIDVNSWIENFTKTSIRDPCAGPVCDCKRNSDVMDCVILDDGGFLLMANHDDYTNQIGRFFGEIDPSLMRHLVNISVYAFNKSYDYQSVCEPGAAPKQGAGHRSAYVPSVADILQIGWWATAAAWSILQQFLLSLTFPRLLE
T2 sequence (P54289 957-1103 partner limits assumed): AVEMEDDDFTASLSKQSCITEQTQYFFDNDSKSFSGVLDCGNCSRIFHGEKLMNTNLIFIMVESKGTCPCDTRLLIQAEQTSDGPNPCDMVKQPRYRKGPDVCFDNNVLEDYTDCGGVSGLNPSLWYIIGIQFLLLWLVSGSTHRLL
Description: Human neuroblastoma cells IMR-32 were obtained from ATCC (American Type Culture Collection). The medium used was a Phenol Red-free Eagle minimum essential medium containing earle's salts (GIBCO) supplemented with 2 mM of L-glutamine (GIBCO), 1 mM of sodium pyruvate (pH 6.5) (GIBCO), antibiotic/antimycotic mixture (GIBCO) and 10% fetal calf serum (Cell Culture Technologies). Three ml of 1×10^5 cells/ml IMR-32 cells were spread on the glass bottom of a dish (Iwaki Glsss Co., Ltd.) having a diameter of 35 mm which had been treated with poly-L-lysin (SIGMA) and collagen (COLLAGEN VITROGEN 100; Collagen Co.). After the culture for 1 day, 1 mM (final concentration) of dibutyl cAMP and 2.5 μM (final concentration) of 5-bromodeoxyuridine (SIGMA) were added. After the culture for additional 10 to 14 days, the cells were subjected to the activity determination.
The medium for IMR-32 cells thus prepared was replaced with 1 ml of Phenol Red-free Eale minimum essential medium (GIBCO) containing 2.5 μM fura-2/AM (Dojin Kagaku, Co.) and earle's salts supplement, and the incubation was conducted at 37° C. for 30 minutes. Then the medium was replaced with a recording medium (20 mM of HEPES-KOH, 115 mM of NaCl, 5.4 mM of KCl, 0.8 mM of MgCl2, 1.8 mM of CaCl2 and 13.8 mM of D-glucose). Antagonistic activity on N-type calcium channel was determined and analyzed using a fluorescence microscope (Nikon Corporation) and an image analysis device ARGUS 50 (Hamamatsu Photonics). In particular, a recording medium (20 mM of HEPES-KOH, 115 mM of NaCl, 5.4 mM of KCl, 0.8 mM of MgCl2, 1.8 mM of CaCl2 and 13.8 mM of D-glucose) containing 1 μM of Nifedipine was given to the cells by reflux by a Y-tube method for 2 minutes. Then a stimulating agent containing 60 mM of potassium chloride was rapidly given by the Y-tube method. The calcium concentration change in the cells in this step was shown as the N-type calcium channel activity. Then stimulating agents containing 60 mM of potassium chloride and 0.1, 1 or 10 μM of the test compound were successively and rapidly given to the cells by the Y-tube method to determine the change in the intracellular calcium concentration. The antagonistic activity on N-type calcium channel was calculated from the inhibition rate (%) at a concentration of 10 μM.

Row | SMILES | IC50 [1] [µM] | inhibition at 10 µM [2] [%]
1 | CC(C)(C)OC(=O)NCC(=O)N1CCC(=C2c3ccccc3C=Cc3ccccc32)CC1 [Example 1, t-butyl 2-[4-(5H-dibenzo[a,d][7]annulen-5-ylidene)-1-piperidinyl]-2-oxoethylcarbamate] | 1 | 67
2 | CC(C)(C)NC(=O)CCC(=O)N1CCC(=C2c3ccccc3C=Cc3ccccc32)CC1 [Example 9, N-(t-butyl)-4-[4-(5H-dibenzo[a,d][7]annulen-5-ylidene)-1-piperidinyl]-4-oxobutanamide] | 0.501 | 83
3 | CC(C)(C)OC(=O)NCC(=O)N1CCC(=C2c3ccccc3CCc3ccccc32)CC1 [Example 16, t-butyl 2-[4(10,11-dihydro-5H-dibenzo[a,d][7]annulen-5-ylidene)-1-piperidinyl]-2-oxoethyl carbamate] | 1.26 | 75
4 | CC(C)(C)OC(=O)NCC(=O)N1CCC(=C2c3ccccc3CSc3ccccc32)CC1 [Example 24, t-butyl 2-(4-dibenzo[b,e]thiepin-11(6H)-ylidene-1-piperidinyl)-2-oxoethylcarbamate] | 1 | 78
5 | CC(C)(C)OC(=O)NCCCNC(=O)C=C1c2ccccc2C=Cc2ccccc21 [Example 41, t-butyl 3-[(5H-dibenzo[a,d][7]annulen-5-ylidenacetyl)amino]-propylcarbamate] | 1.26 | 76
6 | CC(C)(C)OC(=O)N[C@@H](CO)CC(=O)N1CCC(=C2c3ccccc3C=Cc3ccccc32)CC1 [Example 68, (R)-t-butyl 3-[4-(5H-dibenzo[a,d][7]annulen-5-ylidene)-1-piperidinyl]-1-(hydroxymethyl)-3-oxopropylcarbamate] | 0.398 | 82
7 | CC(C)(C)C(=O)N[C@@H](CO)CCC(=O)N1CCC(=C2c3ccccc3C=Cc3ccccc32)CC1 [Example 72, (R)-N-[4-[4-(5H-dibenzo[a,d][7]annulen-5-ylidene)-1-piperidinyl]-1-(hydroxylmethyl)-4-oxobutyl]-2,2-dimethylpropanamide] | 0.794 | 81
8 | CCOC(=O)N[C@@H](CO)CC(=O)N1CCC(=C2c3ccccc3C=Cc3ccccc32)CC1 [Example 73, (R)-ethyl3-[4-(5H-dibenzo[a,d][7]annulen-5-ylidene)-1-piperidinyl]-1-(hydroxymethyl)-3-oxopropylcarbamate] | 2 | 75
9 | CC(C)(C)OC(=O)N[C@@H](CO)CC(=O)N1CCC(=C2c3ccccc3Sc3ccccc32)CC1 [Example 76, tert-butyl (1R)-1-(hydroxymethyl)-3-oxo-3-[4-(9H-thioxanthen-9-ylidene)-1-piperidinyl]propylcarbamate] | 0.794 | 85
10 | CC(C)(C)C(=O)N[C@H](CO)CCC(=O)N1CCC(=C2c3ccccc3CCc3ccccc32)CC1 [Example 78] | 2.51 | 84
